Assays:
[1] = target: MDR1 (ABCB1, P-glycoprotein) (Homo sapiens, UniProt P08183); test: Substrate activity at human MDR1 expressed in MDCK-II cells assessed as apparent permeability across apical to basolateral membrane at 10 uM by LC-MS/MS analysis; assay type: ADME, cell-based
[2] = Inhibition of ALK2 R206H in mouse C2C12 cells assessed as reduction in BMP-induced ALP activity using p-nitrophenyl phosphate as substrate
[3] = Metabolic stability in human liver microsomes assessed as parent compound remaining incubated for 60 mins in presence of NADPH by LC-MS/MS analysis; assay type: ADME, Microsome; settings: read-out: Stabilty
hERG (KCNH2) = hERG (KCNH2) (Homo sapiens, UniProt Q12809); test: Inhibition of human ERG at 10 uM by automated patch method relative to control
[4] = Metabolic stability in rat liver microsomes assessed as parent compound remaining incubated for 60 mins in presence of NADPH by LC-MS/MS analysis; settings: read-out: Stabilty

Sequence of MDR1 (ABCB1, P-glycoprotein) (P08183 whole entry): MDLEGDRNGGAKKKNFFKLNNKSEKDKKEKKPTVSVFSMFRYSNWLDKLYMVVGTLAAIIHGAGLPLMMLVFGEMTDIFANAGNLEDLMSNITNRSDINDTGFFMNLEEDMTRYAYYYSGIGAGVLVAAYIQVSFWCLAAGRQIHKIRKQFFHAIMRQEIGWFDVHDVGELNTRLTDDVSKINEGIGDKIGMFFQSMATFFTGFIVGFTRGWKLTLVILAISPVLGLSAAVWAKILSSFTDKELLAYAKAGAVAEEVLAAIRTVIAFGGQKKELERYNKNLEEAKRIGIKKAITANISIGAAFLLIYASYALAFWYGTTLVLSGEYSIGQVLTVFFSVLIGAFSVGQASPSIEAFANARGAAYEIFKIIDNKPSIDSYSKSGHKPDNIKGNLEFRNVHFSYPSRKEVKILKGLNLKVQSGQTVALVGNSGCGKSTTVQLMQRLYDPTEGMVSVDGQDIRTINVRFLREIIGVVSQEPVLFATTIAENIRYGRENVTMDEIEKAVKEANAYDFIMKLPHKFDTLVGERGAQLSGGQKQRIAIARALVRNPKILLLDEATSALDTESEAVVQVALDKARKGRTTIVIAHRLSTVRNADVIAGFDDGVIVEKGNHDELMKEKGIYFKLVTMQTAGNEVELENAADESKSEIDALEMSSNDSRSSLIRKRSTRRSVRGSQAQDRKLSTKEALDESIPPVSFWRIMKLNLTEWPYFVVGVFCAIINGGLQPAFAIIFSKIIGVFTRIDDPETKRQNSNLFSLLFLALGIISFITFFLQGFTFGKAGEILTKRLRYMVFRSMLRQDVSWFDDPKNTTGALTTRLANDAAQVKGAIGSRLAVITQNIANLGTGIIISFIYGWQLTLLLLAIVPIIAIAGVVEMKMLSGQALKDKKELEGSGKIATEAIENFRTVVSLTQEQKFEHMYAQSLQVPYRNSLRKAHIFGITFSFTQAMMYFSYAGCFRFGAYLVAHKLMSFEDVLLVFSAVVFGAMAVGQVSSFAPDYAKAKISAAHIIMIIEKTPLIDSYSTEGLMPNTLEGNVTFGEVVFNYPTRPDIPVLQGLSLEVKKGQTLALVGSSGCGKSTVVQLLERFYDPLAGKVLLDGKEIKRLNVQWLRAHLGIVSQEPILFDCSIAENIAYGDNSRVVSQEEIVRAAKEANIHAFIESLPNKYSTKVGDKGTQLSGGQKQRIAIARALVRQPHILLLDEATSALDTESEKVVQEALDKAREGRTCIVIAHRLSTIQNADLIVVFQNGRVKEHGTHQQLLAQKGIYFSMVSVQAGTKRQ
Sequence of hERG (KCNH2) (Q12809 whole entry): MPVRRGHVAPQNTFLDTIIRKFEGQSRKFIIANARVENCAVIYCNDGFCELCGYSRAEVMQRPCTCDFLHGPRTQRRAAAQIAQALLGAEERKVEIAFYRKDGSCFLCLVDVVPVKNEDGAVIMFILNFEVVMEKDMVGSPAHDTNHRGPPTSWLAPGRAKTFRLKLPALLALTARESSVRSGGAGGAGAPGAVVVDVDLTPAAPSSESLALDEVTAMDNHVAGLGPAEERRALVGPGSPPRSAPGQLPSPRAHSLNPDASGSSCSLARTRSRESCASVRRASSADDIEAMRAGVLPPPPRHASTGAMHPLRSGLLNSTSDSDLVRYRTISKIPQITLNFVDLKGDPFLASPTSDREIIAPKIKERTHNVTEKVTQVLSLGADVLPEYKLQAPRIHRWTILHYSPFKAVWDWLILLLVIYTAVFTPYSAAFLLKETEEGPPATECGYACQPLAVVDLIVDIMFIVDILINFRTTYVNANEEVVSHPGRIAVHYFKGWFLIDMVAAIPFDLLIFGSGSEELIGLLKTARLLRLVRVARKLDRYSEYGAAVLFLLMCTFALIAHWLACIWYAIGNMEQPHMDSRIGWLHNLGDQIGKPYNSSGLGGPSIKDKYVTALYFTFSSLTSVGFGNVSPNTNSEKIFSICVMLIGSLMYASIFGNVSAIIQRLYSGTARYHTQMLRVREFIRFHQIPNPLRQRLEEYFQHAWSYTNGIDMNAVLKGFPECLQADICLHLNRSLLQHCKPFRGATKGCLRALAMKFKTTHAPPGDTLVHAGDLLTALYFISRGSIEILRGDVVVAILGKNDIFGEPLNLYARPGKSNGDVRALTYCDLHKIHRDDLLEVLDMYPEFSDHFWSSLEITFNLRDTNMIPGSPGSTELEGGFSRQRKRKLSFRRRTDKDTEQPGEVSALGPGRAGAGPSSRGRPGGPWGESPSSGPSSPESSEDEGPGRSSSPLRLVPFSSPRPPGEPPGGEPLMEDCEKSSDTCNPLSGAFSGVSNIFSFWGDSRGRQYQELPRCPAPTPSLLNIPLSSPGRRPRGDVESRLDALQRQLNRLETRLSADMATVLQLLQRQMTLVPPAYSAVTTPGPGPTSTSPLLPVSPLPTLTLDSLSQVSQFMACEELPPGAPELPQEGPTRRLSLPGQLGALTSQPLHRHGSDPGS

Papp A→B at 10 µM [1] [×10⁻⁶ cm/s] | IC50 [2] [nM] | remaining at 1 h [3] [%] | remaining at 1 h [4] [%] | SMILES | inhibition at 10 µM (hERG (KCNH2)) [%]
0.906 | – | – | – | c1cncc(-c2nn3c(c2-c2ccnc(Nc4ccc(N5CCNCC5)cc4)n2)COCC3)c1 | –
8.69 | 37.3 | 56 | 40.5 | COCCN1CCN(c2ccc(Nc3nccc(-c4c(-c5cccnc5)nn5c4COCC5)n3)cc2)CC1 | 3.6
4.37 | – | – | – | CN1CCN(c2ccc(Nc3nccc(-c4c(-c5cccnc5)nn5c4COCC5)n3)cc2)CC1 | –
– | > 100 | 14.8 | 2.1 | COc1ccc(Nc2nccc(-c3c[nH]nc3-c3cccnc3)n2)cc1 | –
